Measurements as given in US6737383B1, “Herbicidal oxadiazolidines” (priority 1999, dated 2004).

What was measured:
corn = assay: Test B pre/postemergence corn; type: in vivo, Zea mays; details: for Corn plant response rating: scale of 0 to 10 where 0 is no effect and 10 is complete control
Outline: (§1)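 Response is a visual 0-to-10 score relative to untreated plants, where 0 means no effect and 10 means complete control, taken twelve to sixteen days after application. Treatments went onto soil at planting and onto foliage of 1- to 4-leaf plants, using a surfactant-containing non-phytotoxic solvent.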

surinam grass = assay: Test B pre/postemergence surinam grass; type: in vivo, Brachiaria decumbens
Outline: as §1

morningglory = assay: Test B pre/postemergence morningglory; type: in vivo, Ipomoea hederacea; details: for Morningglory plant response rating: scale of 0 to 10 where 0 is no effect and 10 is complete control
Outline: as §1

soybean = assay: Test B pre/postemergence soybean; type: in vivo, Glycine max; details: for Soybean plant response rating: scale of 0 to 10 where 0 is no effect and 10 is complete control
Outline: as §1

bedstraw = assay: Test B pre/postemergence bedstraw; type: in vivo, Galium aparine
Outline: as §1

wild oat = assay: Test B pre/postemergence wild oat; type: in vivo, Avena fatua; details: for Wild oats plant response rating: scale of 0 to 10 where 0 is no effect and 10 is complete control
Outline: as §1

pigweed = assay: Test B pre/postemergence pigweed; type: in vivo, Amaranthus retroflexus; details: for Redroot pigweed plant response rating: scale of 0 to 10 where 0 is no effect and 10 is complete control
Outline: as §1

rape = assay: Test B pre/postemergence rape; type: in vivo, Brassica napus; details: for Rape plant response rating: scale of 0 to 10 where 0 is no effect and 10 is complete control
Outline: as §1

cocklebur = assay: Test B pre/postemergence cocklebur; type: in vivo, Xanthium strumarium; details: for Cocklebur plant response rating: scale of 0 to 10 where 0 is no effect and 10 is complete control
Outline: as §1

bamyardgrass = assay: Test B flood test barnyardgrass; type: in vivo, Echinochloa crus-galli
Outline: (§2)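 Plants were grown to the 2-leaf stage before treatment with test chemical, then held in a greenhouse for twelve to sixteen days. Injury was visually rated against untreated controls on a 0–10 scale, where 0 is no effect and 10 is complete control.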

sugar beet = assay: Test B pre/postemergence sugar beet; type: in vivo, Beta vulgaris; details: for Sugarbeets plant response rating: scale of 0 to 10 where 0 is no effect and 10 is complete control
Outline: as §1

blackgrass = assay: Test B pre/postemergence blackgrass; type: in vivo, Alopecurus myosuroides
Outline: as §1

velvetleaf = assay: Test B pre/postemergence velvetleaf; type: in vivo, Abutilon theophrasti; details: for Velvetleaf plant response rating: scale of 0 to 10 where 0 is no effect and 10 is complete control
Outline: as §1

rice = assay: Test B flood test rice; type: in vivo, Oryza sativa
Outline: as §2

purple nutsedge = assay: Test B pre/postemergence purple nutsedge; type: in vivo, Cyperus rotundus; details: for Nutsedge plant response rating: scale of 0 to 10 where 0 is no effect and 10 is complete control
Outline: as §1

smallflower flatsedge = assay: Test B flood test smallflower flatsedge; type: in vivo, Cyperus difformis
Outline: as §2

[1] = Postemergence, Rate 125 g/ha, scale 0 to 10, 0 is no effect, 10 is complete control
[2] = Rate 500 g/ha, Postemergence, scale 0 to 10, 0 no effect, 10 complete control
[3] = Preemergence, Rate 62 g/ha, scale of 0 to 10 where 0 is no effect and 10 is complete control
[4] = Preemergence, Rate 250 g/ha, scale of 0 to 10 where 0 is no effect and 10 is complete control
[5] = Preemergence, Rate 500 g/ha, scale of 0 to 10 where 0 is no effect and 10 is complete control
[6] = Rate 62 g/ha, Postemergence, scale of 0 to 10 where 0 is no effect and 10 is complete control
[7] = Rate 250 g/ha, Postemergence, scale of 0 to 10 where 0 is no effect and 10 is complete control
[8] = Rate 62 g/ha, headed Pre-emergence (flood test species), scale 0 to 10 (0 no effect, 10 complete control)
[9] = Rate 125 g/ha, Pre-emergence, flood test species, scale 0 to 10 where 0 is no effect and 10 is complete control
[10] = Rate 250 g/ha, Pre-emergence, flood-test species, scale 0 to 10, 0 is no effect, 10 is complete control
[11] = Rate 500 g/ha, Pre-emergence, flood test species, scale 0 to 10 (0 no effect, 10 complete control)

Structure (SMILES): CC(C)N(C(=O)n1oc(=O)n(C2CCCCCC2)c1=O)c1ccc(Cl)cc1 [Compound 339]
- Plant response rating, Corn (corn; [1]): 0
- Corn plant response rating (corn; Preemergence, Rate 62 g/ha): 0
- Corn plant response rating (0 to 10 scale) (corn; Preemergence, Rate 125 g/ha): 0
- Corn plant response rating (corn; Preemergence, Rate 250 g/ha): 0
- Corn plant response rating (corn; Preemergence, Rate 500 g/ha): 0
- Corn plant response rating (corn; Rate 62 g/ha, Postemergence): 0
- Plant response rating, Corn (corn; [2]): 0
- Plant response rating, B. signalgrass (surinam grass; [1]): 0
- B. signalgrass plant response rating (surinam grass; [3]): 0
- B. signalgrass plant response rating (0 to 10 scale, 0 is no effect, 10 is complete control) (surinam grass; Preemergence, Rate 125 g/ha): 0
- B. signalgrass plant response rating (surinam grass; [4]): 0
- B. signalgrass plant response rating (surinam grass; [5]): 0
- B. signalgrass plant response rating (surinam grass; [6]): 0
- Plant response rating, B. signalgrass (surinam grass; [7]): 0
- Plant response rating, B. signalgrass (surinam grass; [2]): 0
- Plant response rating, Morningglory (morningglory; [1]): 2
- Morningglory plant response rating (morningglory; Preemergence, Rate 62 g/ha): 0
- Morningglory plant response rating (0 to 10 scale) (morningglory; Preemergence, Rate 125 g/ha): 0
- Morningglory plant response rating (morningglory; Preemergence, Rate 250 g/ha): 0
- Morningglory plant response rating (morningglory; Preemergence, Rate 500 g/ha): 0
- Morningglory plant response rating (morningglory; Rate 62 g/ha, Postemergence): 2
- Plant response rating, Morningglory (morningglory; [2]): 10
- Plant response rating, Soybean (soybean; [1]): 1
- Soybean plant response rating (soybean; Preemergence, Rate 62 g/ha): 0
- Soybean plant response rating (0 to 10 scale) (soybean; Preemergence, Rate 125 g/ha): 0
- Soybean plant response rating (soybean; Preemergence, Rate 250 g/ha): 0
- Soybean plant response rating (soybean; Preemergence, Rate 500 g/ha): 0
- Soybean plant response rating (soybean; Rate 62 g/ha, Postemergence): 1
- Plant response rating, Soybean (soybean; [2]): 4
- Plant response rating, Bedstraw (bedstraw; [1]): 2
- Bedstraw plant response rating (bedstraw; [3]): 0
- Bedstraw plant response rating (0 to 10 scale) (bedstraw; Preemergence, Rate 125 g/ha): 0
- Bedstraw plant response rating (bedstraw; [4]): 0
- Bedstraw plant response rating (bedstraw; [5]): 0
- Bedstraw plant response rating (bedstraw; [6]): 0
- Plant response rating, Bedstraw (bedstraw; [7]): 7
- Plant response rating, Bedstraw (bedstraw; [2]): 8
- Plant response rating, Wild oats (wild oat; [1]): 0
- Wild oats plant response rating (wild oat; Preemergence, Rate 62 g/ha): 0
- Wild oats plant response rating (0 to 10 scale) (wild oat; Preemergence, Rate 125 g/ha): 0
- Wild oats plant response rating (wild oat; Preemergence, Rate 250 g/ha): 0
- Wild oats plant response rating (wild oat; Preemergence, Rate 500 g/ha): 0
- Wild oats plant response rating (wild oat; Rate 62 g/ha, Postemergence): 0
- Plant response rating, Wild oats (wild oat; [2]): 0
- Plant response rating, Redroot pigweed (pigweed; [1]): 2
- Redroot pigweed plant response rating (pigweed; Preemergence, Rate 62 g/ha): 0
- Redroot pigweed plant response rating (0 to 10 scale) (pigweed; Preemergence, Rate 125 g/ha): 0
- Redroot pigweed plant response rating (pigweed; Preemergence, Rate 250 g/ha): 0
- Redroot pigweed plant response rating (pigweed; Preemergence, Rate 500 g/ha): 0
- Redroot pigweed plant response rating (pigweed; Rate 62 g/ha, Postemergence): 0
- Plant response rating, Redroot pigweed (pigweed; [2]): 6
- Plant response rating, Rape (rape; [1]): 1
- Rape plant response rating (rape; Preemergence, Rate 62 g/ha): 0
- Rape plant response rating (0 to 10 scale) (rape; Preemergence, Rate 125 g/ha): 0
- Rape plant response rating (rape; Preemergence, Rate 250 g/ha): 0
- Rape plant response rating (rape; Preemergence, Rate 500 g/ha): 0
- Rape plant response rating (rape; Rate 62 g/ha, Postemergence): 0
- Plant response rating, Rape (rape; [2]): 5
- Plant response rating, Cocklebur (cocklebur; [1]): 0
- Cocklebur plant response rating (cocklebur; Preemergence, Rate 62 g/ha): 0
- Cocklebur plant response rating (0 to 10 scale) (cocklebur; Preemergence, Rate 125 g/ha): 0
- Cocklebur plant response rating (cocklebur; Preemergence, Rate 250 g/ha): 0
- Cocklebur plant response rating (cocklebur; Preemergence, Rate 500 g/ha): 0
- Cocklebur plant response rating (cocklebur; Rate 62 g/ha, Postemergence): 0
- Plant response rating, Cocklebur (cocklebur; [2]): 0
- Barnyardgrass plant response rating (bamyardgrass; [8]): 2
- Barnyardgrass plant response rating (bamyardgrass; [9]): 8
- Barnyardgrass plant response rating (bamyardgrass; [10]): 9
- Barnyardgrass plant response rating (bamyardgrass; [11]): 9
- Plant response rating, Sugarbeets (sugar beet; [1]): 0
- Sugarbeets plant response rating (sugar beet; Preemergence, Rate 62 g/ha): 0
- Sugarbeets plant response rating (0 to 10 scale) (sugar beet; Preemergence, Rate 125 g/ha): 0
- Sugarbeets plant response rating (sugar beet; Preemergence, Rate 250 g/ha): 0
- Sugarbeets plant response rating (sugar beet; Preemergence, Rate 500 g/ha): 0
- Sugarbeets plant response rating (sugar beet; Rate 62 g/ha, Postemergence): 0
- Plant response rating, Sugarbeets (sugar beet; [2]): 0
- Plant response rating, Blackgrass (blackgrass; [1]): 0
- Blackgrass plant response rating (blackgrass; [3]): 0
- Blackgrass plant response rating (0 to 10 scale) (blackgrass; Preemergence, Rate 125 g/ha): 0
- Blackgrass plant response rating (blackgrass; [4]): 2
- Blackgrass plant response rating (blackgrass; [5]): 3
- Blackgrass plant response rating (blackgrass; [6]): 0
- Plant response rating, Blackgrass (blackgrass; [7]): 0
- Plant response rating, Blackgrass (blackgrass; [2]): 2
- Plant response rating, Velvetleaf (velvetleaf; [1]): 0
- Velvetleaf plant response rating (velvetleaf; Preemergence, Rate 62 g/ha): 0
- Velvetleaf plant response rating (0 to 10 scale) (velvetleaf; Preemergence, Rate 125 g/ha): 0
- Velvetleaf plant response rating (velvetleaf; Preemergence, Rate 250 g/ha): 0
- Velvetleaf plant response rating (velvetleaf; Preemergence, Rate 500 g/ha): 0
- Velvetleaf plant response rating (velvetleaf; Rate 62 g/ha, Postemergence): 0
- Plant response rating, Velvetleaf (velvetleaf; [2]): 0
- Rice plant response rating (rice; [8]): 0
- Rice plant response rating (rice; [9]): 0
- Rice plant response rating (rice; [10]): 0
- Rice plant response rating (rice; [11]): 1
- Plant response rating, Nutsedge (purple nutsedge; [1]): 0
- Nutsedge plant response rating (purple nutsedge; Preemergence, Rate 62 g/ha): 0
- Nutsedge plant response rating (0 to 10 scale) (purple nutsedge; Preemergence, Rate 125 g/ha): 0
- Nutsedge plant response rating (purple nutsedge; Preemergence, Rate 250 g/ha): 0
- Nutsedge plant response rating (purple nutsedge; Preemergence, Rate 500 g/ha): 0
- Nutsedge plant response rating (purple nutsedge; Rate 62 g/ha, Postemergence): 0
- Plant response rating, Nutsedge (purple nutsedge; [2]): 0
- S. Flatsedge plant response rating (smallflower flatsedge; [8]): 0
- S. Flatsedge plant response rating (smallflower flatsedge; [9]): 0
- S. Flatsedge plant response rating (smallflower flatsedge; [10]): 0
- S. Flatsedge plant response rating (smallflower flatsedge; [11]): 1
